Laboratory results published in article PMC8065850 (Microorganisms, 2021).
pIC50: −log10 of the molar value. “Also recorded” adds a separate entry of the source.

Tests used:
SARS-CoV-2 3CLpro = SARS-CoV-2 3CLpro (Severe acute respiratory syndrome coronavirus 2, UniProt P0DTD1); test: biochemical; format: biochemical
SARS-CoV 3CLpro = SARS-CoV 3CLpro (Severe acute respiratory syndrome coronavirus, UniProt P0C6X7); test: biochemical; format: biochemical
[1] = test system: SARS-CoV-2 in infected Vero cells; conditions: cited from earlier work

SMILES | inhibitory effect in library screening against SARS-CoV-2 3CLpro (in words) (SARS-CoV-2 3CLpro) | inhibitory effect in library screening against SARS-CoV 3CLpro (in words) (SARS-CoV 3CLpro) | pIC50 (SARS-CoV 3CLpro) | further results
Cc1cccc(C)c1OCC(=O)N[C@@H](Cc1ccccc1)[C@@H](O)C[C@H](Cc1ccccc1)NC(=O)[C@H](C(C)C)N1CCCNC1=O [Lopinavir] | did not block the proteolytic activity | – | – | –
Nc1nc(O)c2ncn(COC(CO)CO)c2n1 [No 1-3, Ganciclovir] | little | little | – | –
CC(C)OC(=O)[C@H](C)N[P@](=O)(OC[C@H]1O[C@@H](n2ccc(=O)[nH]c2=O)[C@](C)(F)[C@@H]1O)Oc1ccccc1 [No 2-3, Sofosbuvir] | little | little | – | –
C=C1[C@H](CO)[C@@H](O)C[C@@H]1n1cnc2c(=O)[nH]c(N)nc21 [No 4-3, Entecavir] | little | little | – | –
Nc1ccn([C@@H]2CS[C@H](CO)O2)c(=O)n1 [No 4-4, Lamivudine] | little | little | – | –
CCN(CC)CCCC(C)Nc1ccnc2cc(Cl)ccc12 (centres unmarked) [No 6-5, Chloroquine] | little | little | – | –
CCN(CCO)CCCC(C)Nc1ccnc2cc(Cl)ccc12 (centres unmarked) [No 6-6, Hydroxychloroquine] | little | little | – | –
Nc1nc(NC2CC2)c2ncn([C@H]3C=C[C@@H](CO)C3)c2n1 [abacavir, Abacavir] | – | – | 4.61 | pIC50 (SARS-CoV-2 3CLpro): 4.90
Nc1ccn(C[C@@H](CO)OCP(=O)(O)O)c(=O)n1 [cidofovir, Cidofovir] | – | – | < 4.33 | pIC50 (SARS-CoV-2 3CLpro): < 4.44
CC(C)(C)NC(=O)[C@@H]1CN(Cc2cccnc2)CCN1C[C@@H](O)C[C@@H](Cc1ccccc1)C(=O)N[C@H]1c2ccccc2C[C@H]1O [indinavir, Indinavir] | – | – | 4.50 | –
CCC(CC)COC(=O)[C@H](C)N[P@](=O)(OC[C@H]1O[C@@](C#N)(c2ccc3c(N)ncnn23)[C@H](O)[C@@H]1O)Oc1ccccc1 [remdesivir, Remdesivir] | minor inhibitory activity | – | – | –
CC(C)c1nc(CN(C)C(=O)N[C@H](C(=O)N[C@@H](Cc2ccccc2)C[C@H](O)[C@H](Cc2ccccc2)NC(=O)OCc2cncs2)C(C)C)cs1 [ritonavir, Ritonavir] | did not block the proteolytic activity; also recorded: did not show clear inhibitory activity | – | – | –
CCCc1nn(C)c2c(=O)[nH]c(-c3cc(S(=O)(=O)N4CCN(C)CC4)ccc3OCC)nc12 [sildenafil, Sildenafil] | – | – | 4.90 | pIC50 (SARS-CoV-2 3CLpro): 5.08
CN1CC(=O)N2[C@H](c3ccc4c(c3)OCO4)c3[nH]c4ccccc4c3C[C@@H]2C1=O [tadalafil, Tadalafil] | did not display meaningful inhibitory activity | did not display meaningful inhibitory activity | – | –
C[C@H](Cn1cnc2c(N)ncnc21)OCP(=O)(O)O [tenofovir, Tenofovir] | – | – | 4.85 | killing of SARS-CoV-2 in infected Vero cells [1]: kill SARS-CoV-2
